Each structure is given as a SMILES string.

Assay [1] has as its system Canis familiaris. Put plainly: Compound was evaluated for the intravenous dose required to prolong relative refractory period (RRP) 20 ms above baseline in chloralose anesthetized dogs using a paired pacing protocol. Conditions: Canis lupus familiaris. It is filed as functional.
Assay [2] concerns the target T1, Alpha-1A adrenergic receptor (Bos taurus, UniProt P18130).
T1 sequence (P18130 whole entry): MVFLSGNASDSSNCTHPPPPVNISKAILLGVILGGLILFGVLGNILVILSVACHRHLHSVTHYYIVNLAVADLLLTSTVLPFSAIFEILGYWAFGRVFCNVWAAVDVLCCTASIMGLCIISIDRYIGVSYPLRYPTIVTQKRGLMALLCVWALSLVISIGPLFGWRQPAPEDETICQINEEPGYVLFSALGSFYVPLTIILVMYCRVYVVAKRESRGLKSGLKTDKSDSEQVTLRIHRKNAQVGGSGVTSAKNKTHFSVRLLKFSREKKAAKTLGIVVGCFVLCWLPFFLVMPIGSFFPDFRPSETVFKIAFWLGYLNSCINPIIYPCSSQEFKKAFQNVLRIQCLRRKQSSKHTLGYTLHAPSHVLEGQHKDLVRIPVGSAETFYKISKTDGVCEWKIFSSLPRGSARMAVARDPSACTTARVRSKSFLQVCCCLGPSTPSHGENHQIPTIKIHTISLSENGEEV
Put plainly: Compound was evaluated for binding affinity at bovine brain Alpha-1 adrenergic receptor in a filtration-based assay using [3H]prazosin as the radioligand.

The species entered for assay [3] is Mustela putorius furo. In words: Compound was evaluated for the molar concentration required to prolong effective refractory period (ERP) 25% above baseline in ferret isolated right ventricular papillary muscles using a paired pacing protocol. It is filed as functional, Muscle tissue.
Assay [4] has as its target T1, Alpha-1A adrenergic receptor. In words: Compound was evaluated for binding affinity at bovine brain Alpha-1 adrenergic receptor determined in a filtration-based assay using [3H]prazosin as the radioligand.

Broadly, the IC50 is the midpoint of a concentration-inhibition curve. A low value points to inhibition by little substance. For orientation: EC25 means the concentration at which the effect reaches the 25% level. The low end stands for greater potency, the high end for weaker potency. `CS(=O)(=O)Nc1ccc(CCN2CCC3(CC2)CC(=O)c2cc(NS(C)(=O)=O)ccc2O3)cc1.Cl` returned an ED20 in assay [1] of 3 µg/kg. The IC50 in assay [2] was determined as 15 µM. Besides, in assay [3], the EC25 amounted to 0.074 µM.

`CS(=O)(=O)Nc1ccc2c(c1)C(=O)CC1(CCN(CCc3ccc(C#N)cc3)CC1)O2.Cl` displayed an ED20 in assay [1] of 7 µg/kg. Also, the IC50 in assay [2] amounted to 1 µM. The EC25 in assay [3] worked out at 0.003 µM.

In assay [3], `CS(=O)(=O)Nc1cccc2c1OC1(CCN(CCc3ccccn3)CC1)CC2=O.Cl.O` registered an EC25 of 7.4 µM.

`CS(=O)(=O)Nc1ccc2c(c1)C(=O)CC1(CCN(CCc3ccccc3)CC1)O2.Cl` yielded an ED20 in assay [1] of 5 µg/kg. The compound also had an IC50 in assay [2] of 0.1 µM. In assay [3], this compound returned a 25% effect concentration (EC25) of 0.007 µM.

Consider `CS(=O)(=O)Nc1ccc2c(c1)CCC1(CCN(CCc3ccc4nonc4c3)CC1)O2.Cl`, for which, in assay [2], the IC50 stood at 3 µM. The EC25 in assay [3] stood at 0.054 µM.

Compound `CS(=O)(=O)Nc1ccc2c(c1)C(O)CC1(CCN(CCc3ccc4nonc4c3)CC1)O2.Cl` (centres undefined) displayed an ED20 in assay [1] of 200 µg/kg. The same compound came in with an IC50 in assay [2] of 2.3 µM. Moreover, the EC25 in assay [3] came out at 0.9 µM.

In the case of `CS(=O)(=O)Nc1ccc2c(c1)C(=O)CC1(CCN(CCc3ccc([N+](=O)[O-])cc3)CC1)O2.Cl`, the IC50 in assay [4] came to 0.9 µM. In addition, the EC25 in assay [3] was 0.005 µM.

On to `Cl.O=C1CC2(CCN(CCc3ccccn3)CC2)Oc2ccccc21`, for which the ED20 in assay [1] is 500 µg/kg. The same compound displayed an EC25 in assay [3] of 0.16 µM.

`CS(=O)(=O)Nc1ccc2c(c1)C(=O)CC1(CCN(CCc3ccccn3)CC1)O2.Cl.O`: the ED20 in assay [1] was found to be 10 µg/kg. In assay [2], this compound returned an IC50 of 0.5 µM. Also, in assay [3], the EC25 is 0.033 µM.

Compound `CS(=O)(=O)Nc1ccc2c(c1)C(=O)CC1(CCN(CCc3ccc4nonc4c3)CC1)O2.Cl` returned an ED20 in assay [1] of 2.8 µg/kg. This compound also yielded an EC25 in assay [3] of 0.013 µM.

As for `CS(=O)(=O)Nc1ccc2c(c1)OC1(CCN(CCc3ccccn3)CC1)CC2=O.Cl.O`, the EC25 in assay [3] came to 6.6 µM.

`Cc1cccc(CCN2CCC(C(=O)c3ccc(NS(C)(=O)=O)cc3)CC2)n1` gave an ED20 in assay [1] of 17.4 µg/kg. The compound further showed an EC25 in assay [3] of 0.058 µM.

In the case of `CN(CCOc1ccc(NS(C)(=O)=O)cc1)CCc1ccc(NS(C)(=O)=O)cc1` [DOFETILIDE], in assay [1], the ED20 was 5.2 µg/kg. In assay [3], this compound came in with an EC25 of 0.018 µM.

Source of the values: ChEMBL document CHEMBL1125329, “4-Oxospiro[benzopyran-2,4'-piperidines] as class III antiarrhythmic agents. Pharmacological studies on 3,4-dihydro-1'-[2-(benzofurazan-5-yl)- ethyl]-6-methanesulfonamidospiro[(2H)-1-benzopyran-2,4'-piperidin]-4-on e (L-691,121)” (J Med Chem, 1992).
